pIC50: −log10 of the molar value.
Target: T1, c-Met kinase (recombinant c-Met) (Homo sapiens, UniProt P08581)
T1 construct: 0.27 nM recombinant c-Met
Assay: In vitro kinase assay I (homogeneous time-resolved fluorescence tyrosine kinase assay)
Assay type: biochemical
How it was run: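 Biotinylated peptide (0.5 μM) phosphorylated by 0.2 nM recombinant c-Met with 50 μM MgATP, 60 min at room temperature, pH 7.4, 5% DMSO. EDTA stop; HTRF read with Eu-anti-phosphotyrosine antibody and streptavidin-APC. IC50 from 4-parameter logistic fit.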

T1 sequence (P08581 25-1390): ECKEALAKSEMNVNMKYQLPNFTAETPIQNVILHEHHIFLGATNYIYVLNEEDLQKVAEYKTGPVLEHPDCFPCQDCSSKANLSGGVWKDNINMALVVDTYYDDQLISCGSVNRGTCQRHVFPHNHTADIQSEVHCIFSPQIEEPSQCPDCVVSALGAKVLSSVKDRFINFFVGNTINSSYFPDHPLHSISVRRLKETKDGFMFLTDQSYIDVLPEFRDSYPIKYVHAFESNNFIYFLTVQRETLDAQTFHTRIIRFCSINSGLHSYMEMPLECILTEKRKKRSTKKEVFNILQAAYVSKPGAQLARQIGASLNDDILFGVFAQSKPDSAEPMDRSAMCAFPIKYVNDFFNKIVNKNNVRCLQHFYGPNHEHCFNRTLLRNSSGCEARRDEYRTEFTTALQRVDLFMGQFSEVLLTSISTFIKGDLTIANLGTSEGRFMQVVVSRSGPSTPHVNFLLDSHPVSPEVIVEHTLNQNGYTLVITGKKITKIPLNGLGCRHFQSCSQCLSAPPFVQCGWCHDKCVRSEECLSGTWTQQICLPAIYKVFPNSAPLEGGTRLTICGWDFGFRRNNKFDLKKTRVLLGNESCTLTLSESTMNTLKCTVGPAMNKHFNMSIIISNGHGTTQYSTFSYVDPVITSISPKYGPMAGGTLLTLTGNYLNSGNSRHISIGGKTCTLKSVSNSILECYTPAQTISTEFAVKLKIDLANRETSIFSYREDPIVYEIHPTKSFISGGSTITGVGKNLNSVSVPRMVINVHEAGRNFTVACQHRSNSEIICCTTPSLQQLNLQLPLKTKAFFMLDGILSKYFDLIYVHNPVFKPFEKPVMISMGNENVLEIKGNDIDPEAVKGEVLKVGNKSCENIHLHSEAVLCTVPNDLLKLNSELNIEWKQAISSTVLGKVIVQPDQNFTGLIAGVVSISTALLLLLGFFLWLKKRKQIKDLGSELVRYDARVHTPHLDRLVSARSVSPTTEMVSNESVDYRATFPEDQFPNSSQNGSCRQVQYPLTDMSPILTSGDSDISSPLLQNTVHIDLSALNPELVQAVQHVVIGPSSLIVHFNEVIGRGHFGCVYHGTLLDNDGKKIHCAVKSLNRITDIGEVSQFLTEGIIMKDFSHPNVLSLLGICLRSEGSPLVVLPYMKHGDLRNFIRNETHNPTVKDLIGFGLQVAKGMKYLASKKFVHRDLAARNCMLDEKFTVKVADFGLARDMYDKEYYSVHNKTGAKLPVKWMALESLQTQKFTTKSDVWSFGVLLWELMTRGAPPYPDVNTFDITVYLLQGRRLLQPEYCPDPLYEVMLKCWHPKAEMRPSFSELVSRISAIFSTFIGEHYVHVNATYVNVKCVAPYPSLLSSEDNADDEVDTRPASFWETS

| pIC50 | SMILES |
| --- | --- |
| > 7.00 | CCn1cc(-n2ccc(=O)c(Cc3cccc(-c4ncc(COC)cn4)c3)n2)cn1 [Example 163, 1-(1-ethyl-1H-pyrazol-4-yl)-3-{3-[5-(methoxymethyl)pyrimidin-2-yl]benzyl}pyridazin-4(1H)-one] |
| > 7.00 | Cn1cc(-n2ccc(=O)c(Cc3cccc(-c4ncc(OC5COC5)cn4)c3)n2)cn1 [Example 164, 1-(1-methyl-1H-pyrazol-4-yl)-3-{3-[5-(oxetan-3-yloxy)pyrimidin-2-yl]benzyl}pyridazin-4(1H)-one] |
| > 7.00 | CCn1cc(-n2ccc(=O)c(Cc3cccc(-c4ncc(OC5COC5)cn4)c3)n2)cn1 [Example 165, 1-(1-ethyl-1H-pyrazol-4-yl)-3-{3-[5-(oxetan-3-yloxy)pyrimidin-2-yl]benzyl}pyridazin-4(1H)-one] |
| > 7.00 | Cn1cc(-n2ccc(=O)c(Cc3cccc(-c4ncc(C(C)(C)O)cn4)c3)n2)cn1 [Example 167, 3-{3-[5-(1-hydroxy-1-methylethyl)pyrimidin-2-yl]benzyl}-1-(1-methyl-1H-pyrazol-4-yl)pyridazin-4(1H)-one] |
| 6.00 to 7.00 | COC(C)(C)c1cnc(-c2cccc(Cc3nn(-c4cnn(C)c4)ccc3=O)c2)nc1 [Example 168, 3-{3-[5-(1-methoxy-1-methylethyl)pyrimidin-2-yl]benzyl}-1-(1-methyl-1H-pyrazol-4-yl)pyridazin-4(1H)-one] |
| 6.00 to 7.00 | CCOC(C)(C)c1cnc(-c2cccc(Cc3nn(-c4cnn(C)c4)ccc3=O)c2)nc1 [Example 169, 3-{3-[5-(1-ethoxy-1-methylethyl)pyrimidin-2-yl]benzyl}-1-(1-methyl-1H-pyrazol-4-yl)pyridazin-4(1H)-one] |
| > 7.00 | CN1CCC(COc2cnc(-c3cccc(Cc4nn(-c5cc(F)cc(C#N)c5)ccc4=O)c3)nc2)CC1 [Example 170, 3-fluoro-5-[3-(3-{5-[(1-methylpiperidin-4-yl)methoxy]pyrimidin-2-yl}benzyl)-4-oxopyridazin-1(4H)-yl]benzonitrile] |
| > 7.00 | CN1CCC(COc2cnc(-c3cccc(Cc4nn(-c5cccc(C#N)c5)ccc4=O)c3)nc2)CC1 [Example 171, 3-[3-(3-{5-[(1-methylpiperidin-4-yl)methoxy]pyrimidin-2-yl}benzyl)-4-oxopyridazin-1(4H)-yl]benzonitrile] |
| > 7.00 | CCn1cc(-n2ccc(=O)c(Cc3cccc(-c4ncc(OCC5CCN(C)CC5)cn4)c3)n2)cn1 [Example 172, 1-(1-ethyl-1H-pyrazol-4-yl)-3-(3-{5-[(1-methylpiperidin-4-yl)methoxy]pyrimidin-2-yl}benzyl)pyridazin-4(1H)-one] |
| > 7.00 | CN1CCC(COc2cnc(-c3cccc(Cc4nn(-c5cc(F)cc(F)c5)ccc4=O)c3)nc2)CC1 [Example 173, 1-(3,5-difluorophenyl)-3-(3-{5-[(1-methylpiperidin-4-yl)methoxy]pyrimidin-2-yl}benzyl)pyridazin-4(1H)-one] |
| > 7.00 | Cn1cc(-n2ccc(=O)c(Cc3cccc(-c4ncc(C5=CCOC5)cn4)c3)n2)cn1 [Example 175, 3-{3-[5-(2,5-dihydrofuran-3-yl)pyrimidin-2-yl]benzyl}-1-(1-methyl-1H-pyrazol-4-yl)pyridazin-4(1H)-one] |
| > 7.00 | CCCCc1nc(-c2cccc(Cc3nn(-c4cnn(C)c4)ccc3=O)c2)ncc1OCC [Example 176, 3-[3-(4-butyl-5-ethoxypyrimidin-2-yl)benzyl]-1-(1-methyl-1H-pyrazol-4-yl)pyridazin-4(1H)-one] |
| > 7.00 | CCOc1cnc(-c2cccc(Cc3nn(-c4cnn(C)c4)ccc3=O)c2)nc1C [Example 177, 3-[3-(5-ethoxy-4-methylpyrimidin-2-yl)benzyl]-1-(1-methyl-1H-pyrazol-4-yl)pyridazin-4(1H)-one] |
| > 7.00 | CCOc1cnc(-c2cccc(Cc3nn(-c4cnn(C)c4)ccc3=O)c2)nc1CC [Example 178, 3-[3-(5-ethoxy-4-ethylpyrimidin-2-yl)benzyl]-1-(1-methyl-1H-pyrazol-4-yl)pyridazin-4(1H)-one] |

From patent publication US20120264735A1 (priority 2009, published 2012)
